Measured values reported in ChEMBL document CHEMBL1201862, “PubChem BioAssay data set” (2004).
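Interpolation was linear, between the two tested concentrations surrounding the appropriate level; five concentrations were tested over 48 hours in 96-well plates. GI50 is the concentration that inhibits growth by half.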 Calls of active or inactive are those of the source. Rule as the data show it: active = GI50 up to about 1.1 µM and inactive = higher.

How the values were obtained:
Assay in all cases: DTP human tumour cell line panel, 48 h
[1] = test system: M14
[2] = test system: U-251
[3] = test system: CAKI-1
[4] = test system: SW-620
[5] = test system: ACHN
[6] = test system: NCI-H460
[7] = test system: SR
[8] = test system: K562
[9] = test system: SN12C
[10] = test system: HOP-92
[11] = test system: DU-145
[12] = test system: SNB-19
[13] = test system: 786-0
[14] = test system: SK-MEL-5
[15] = test system: NCI-H226
[16] = test system: UACC-62
[17] = test system: HCT-116
[18] = test system: MDA-MB-435
[19] = test system: SK-MEL-28
[20] = test system: MDA-N
[21] = test system: NCI/ADR-RES
[22] = test system: BT-549
[23] = test system: SNB-75
[24] = test system: HCC 2998
[25] = test system: A498
[26] = test system: MCF7
[27] = test system: OVCAR-4
[28] = test system: EKVX
[29] = test system: NCI-H522
[30] = test system: SK-OV-3
[31] = test system: COLO 205
[32] = test system: KM12
[33] = test system: PC-3
[34] = test system: T47D
[35] = test system: MDA-MB-231
[36] = test system: RPMI-8226
[37] = test system: HL-60
[38] = test system: HOP-62
[39] = test system: Malme-3M
[40] = test system: OVCAR-5
[41] = test system: SF-268
[42] = test system: OVCAR-3
[43] = test system: NCI-H23
[44] = test system: SK-MEL-2
[45] = test system: HCT-15
[46] = test system: UO-31
[47] = test system: SF-295
[48] = test system: A549
[49] = test system: IGROV-1
[50] = test system: Hs-578T
[51] = test system: HT-29
[52] = test system: UACC-257
[53] = test system: LOX IMVI
[54] = test system: CCRF-CEM
[55] = test system: OVCAR-8
[56] = test system: RXF 393
[57] = test system: MOLT-4
[58] = test system: TK-10
[59] = test system: SF-539

Question: What does the source list for `O=C1C(c2c(O)[nH]c3ccc(Br)cc23)=Nc2ccccc21`?
Answer: GI50 [1]: 11.3 µM (inactive); GI50 [2]: 12.8 µM (inactive); GI50 [3]: 2.65 µM (inactive); GI50 [4]: 12.7 µM (inactive); GI50 [5]: 3.06 µM (inactive); GI50 [6]: 12.7 µM (inactive); GI50 [7]: 6.73 µM (inactive); GI50 [8]: 5.62 µM (inactive); GI50 [9]: 28 µM (inactive); GI50 [10]: 16.6 µM (inactive); GI50 [11]: 6.81 µM (inactive); GI50 [12]: 13.2 µM (inactive); GI50 [13]: 2.13 µM (inactive); GI50 [14]: 4.01 µM (inactive); GI50 [15]: 15.1 µM (inactive); GI50 [16]: 12.2 µM (inactive); GI50 [17]: 2.32 µM (inactive); GI50 [18]: 6.9 µM (inactive); GI50 [19]: 29 µM (inactive); GI50 [20]: 14 µM (inactive); GI50 [21]: 17.7 µM (inactive); GI50 [22]: 19.5 µM (inactive); GI50 [23]: 11.2 µM (inactive); GI50 [24]: 3.79 µM (inactive); GI50 [25]: 3.3 µM (inactive); GI50 [26]: 1.76 µM (inactive); GI50 [27]: 9.04 µM (inactive); GI50 [28]: 2.93 µM (inactive); GI50 [29]: 14.7 µM (inactive); GI50 [30]: 13 µM (inactive); GI50 [31]: 5.65 µM (inactive); GI50 [32]: 2.92 µM (inactive); GI50 [33]: 5 µM (inactive); GI50 [34]: 8.63 µM (inactive); GI50 [35]: 15 µM (inactive); GI50 [36]: 8.79 µM (inactive); GI50 [37]: 96.2 µM (inactive); GI50 [38]: 12.4 µM (inactive); GI50 [39]: 4.91 µM (inactive); GI50 [40]: 11.9 µM (inactive); GI50 [41]: 9.62 µM (inactive); GI50 [42]: 10.6 µM (inactive); GI50 [43]: 12.4 µM (inactive); GI50 [44]: 11.9 µM (inactive); GI50 [45]: 5.41 µM; GI50 [46]: 2.74 µM (inactive); GI50 [47]: 15.5 µM (inactive); GI50 [48]: 4.07 µM (inactive); GI50 [49]: 0.562 µM (active); GI50 [50]: 12.9 µM (inactive); GI50 [51]: 4.28 µM (inactive); GI50 [52]: 24.2 µM (inactive); GI50 [53]: 8.55 µM (inactive); GI50 [54]: 22.7 µM (inactive); GI50 [55]: 6.78 µM (inactive); GI50 [56]: 2.39 µM (inactive); GI50 [57]: 18.2 µM (inactive); GI50 [58]: 13.4 µM (inactive)

Question: Which GI50 [1] does the source give for `O=[N+]([O-])c1ccc(C(=S)Nc2ccccc2)o1` here?
Answer: 4.94 µM (inactive)

Question: And the GI50 [2]?
Answer: 1.48 µM (inactive)

Question: And the GI50 [3]?
Answer: 4.11 µM (inactive)

Question: What about the GI50 [4] of the same compound?
Answer: 1.27 µM (inactive)

Question: And the GI50 [5]?
Answer: 2.36 µM (inactive)

Question: What about the GI50 [6] of the same compound?
Answer: 3.19 µM (inactive)

Question: And the GI50 [7]?
Answer: 1.79 µM (inactive)

Question: And the GI50 [8]?
Answer: 0.938 µM (active)

Question: And the GI50 [9]?
Answer: 2.42 µM (inactive)

Question: What about the GI50 [10] of the same compound?
Answer: 15.3 µM (inactive)

Question: What about the GI50 [11] of the same compound?
Answer: 6.41 µM (inactive)

Question: What about the GI50 [12] of the same compound?
Answer: 4.62 µM (inactive)

Question: And the GI50 [13]?
Answer: 2.07 µM (inactive)

Question: And the GI50 [14]?
Answer: 10.9 µM (inactive)

Question: And the GI50 [16]?
Answer: 3.46 µM (inactive)

Question: What about the GI50 [17] of the same compound?
Answer: 1.81 µM (inactive)

Question: What about the GI50 [18] of the same compound?
Answer: 2.58 µM (inactive)

Question: And the GI50 [19]?
Answer: 4.27 µM (inactive)

Question: And the GI50 [20]?
Answer: 2.96 µM (inactive)

Question: And the GI50 [21]?
Answer: 2.16 µM (inactive)

Question: And the GI50 [22]?
Answer: 4.76 µM (inactive)

Question: What about the GI50 [23] of the same compound?
Answer: 7.67 µM (inactive)

Question: And the GI50 [24]?
Answer: 1.69 µM (inactive)

Question: What about the GI50 [25] of the same compound?
Answer: 18.1 µM (inactive)

Question: And the GI50 [26]?
Answer: 2.05 µM (inactive)

Question: What about the GI50 [27] of the same compound?
Answer: 2.43 µM (inactive)

Question: What about the GI50 [28] of the same compound?
Answer: 5.11 µM (inactive)

Question: What about the GI50 [29] of the same compound?
Answer: 1.34 µM (inactive)

Question: What about the GI50 [30] of the same compound?
Answer: 11.4 µM (inactive)

Question: And the GI50 [59]?
Answer: 1.58 µM (inactive)

Question: And the GI50 [32]?
Answer: 2.38 µM (inactive)

Question: And the GI50 [33]?
Answer: 1.79 µM (inactive)

Question: And the GI50 [34]?
Answer: 4.33 µM (inactive)

Question: And the GI50 [35]?
Answer: 2.74 µM (inactive)

Question: What about the GI50 [36] of the same compound?
Answer: 1.53 µM (inactive)

Question: What about the GI50 [37] of the same compound?
Answer: 2.1 µM (inactive)

Question: What about the GI50 [38] of the same compound?
Answer: 2.65 µM (inactive)

Question: What about the GI50 [39] of the same compound?
Answer: 2.91 µM (inactive)

Question: What about the GI50 [40] of the same compound?
Answer: 4.54 µM (inactive)

Question: What about the GI50 [41] of the same compound?
Answer: 3.36 µM (inactive)

Question: What about the GI50 [42] of the same compound?
Answer: 2.19 µM (inactive)

Question: And the GI50 [43]?
Answer: 3.35 µM (inactive)

Question: What about the GI50 [44] of the same compound?
Answer: 2.48 µM (inactive)

Question: What about the GI50 [45] of the same compound?
Answer: 2.07 µM

Question: And the GI50 [46]?
Answer: 2.32 µM (inactive)

Question: And the GI50 [47]?
Answer: 5.56 µM (inactive)

Question: What about the GI50 [48] of the same compound?
Answer: 6.55 µM (inactive)

Question: And the GI50 [49]?
Answer: 6.1 µM (inactive)

Question: What about the GI50 [50] of the same compound?
Answer: 3.71 µM (inactive)

Question: What about the GI50 [51] of the same compound?
Answer: 1.85 µM (inactive)

Question: And the GI50 [52]?
Answer: 4.3 µM (inactive)

Question: And the GI50 [53]?
Answer: 2.29 µM (inactive)

Question: And the GI50 [54]?
Answer: 2.45 µM (inactive)

Question: What about the GI50 [55] of the same compound?
Answer: 2.51 µM (inactive)

Question: What about the GI50 [56] of the same compound?
Answer: 4.14 µM (inactive)

Question: What about the GI50 [57] of the same compound?
Answer: 1.26 µM (inactive)

Question: What about the GI50 [58] of the same compound?
Answer: 4.74 µM (inactive)
